Data set [1] is described as follows: Ethyl glucuronide levels in postmortem urine by SPE and HPLC-PED. Details: species or system human. Conditions: in vivo. The method, then: A ternary gradient solvent delivery pump 106 (Model 8800; Spectra Physics, Mountain View, Calif.) equipped with mixing chamber 104 and on-line degasser unit 102 (Model KT-35M; Shodex, Clear Brook, Va.) were used to provide solvent delivery to analytical column 110. In certain embodiments, isocratic separations are performed using a 1% acetic acid/water:acetonitrile (98:2, v/v) mobile phase set to a flow rate of 1.0 mL ? min-1. Injection valve 108 (Model 7010; Rheodyne, Rohnert Park, Calif.) is fitted with a 50 μL injection loop. Separations can be performed using any suitable analytical column, selected based upon the glucuronide(s) of interest. For example, a reversed-phase (C18; 250×4.6 mm, 5 μm, 100 Å) Denali column (Vydac, Columbia, Md.) with guard column (C18; 7.5×4.6 mm, 5 μm; Vydac) can be used, or a bonded-phase silica column comprising a C18 functional group bonded to its surface using a sulfonamide group coupled to an ether linkage (DIONEX® PA column, DIONEX®, Sunnyvale, Calif.) can be used. Post-column addition of NaOH 112 (for example, 600 mM NaOH), necessary to promote PED-activity, was accomplished by a reagent delivery module (RDM, Dionex, Sunnyvale, Calif.). […]
All urine samples (1.0 mL) were pretreated with 100 μL of 3 M HCl and 3 mL acetonitrile. […] The reconstituted solution was diluted further to bring EtG within the linear range of quantitation. […]

For data set [2] the following is noted: after alcohol consumption; cited from earlier work.

We go through one compound from patent US20060019400A1, “Method for the determination of glucuronides in physiological samples” (University of Maryland, priority 2004, published 2006).

Regarding `CCO[C@@H]1O[C@H](C(=O)O)[C@@H](O)[C@H](O)[C@H]1O` [EtG, Ethyl glucuronide], the “EtG levels in postmortem samples” value in data set [1] fell in the range of 3 to 700 µg/mL. Moreover, the “period of detection after the complete elimination of alcohol from the body” value in data set [2] was “up to 80 h”.
